From ChEMBL document CHEMBL1201862, “PubChem BioAssay data set” (2004)
The source made the active and inactive calls. For most assays here, no stated cut-off is given here; in the data, actives have a measured EC50 and inactives only a lower limit.

Tests used:
[1] = system: Streptococcus sp. 'group A'; assay: Streptococcus pyogenes SK(-)GAS viability under kanamycin – luminescence, BacTiterGlo, confirmation, counter-screen for streptokinase expression inhibitor project, dose response (AID 1900); format: functional, organism-based
[2] = molecular target: T1, Streptokinase A (Streptococcus pyogenes serotype M1, UniProt P10520); assay: viability-normalized secreted streptokinase activity reduction – plasminogen activation absorbance, OD405, dose response (AID 1914); format: functional, Streptococcus pyogenes M1 GAS;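 further: secreted streptokinase activity via plasminogen activation per viability signal from cell pellet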
T1 sequence (P10520 whole entry): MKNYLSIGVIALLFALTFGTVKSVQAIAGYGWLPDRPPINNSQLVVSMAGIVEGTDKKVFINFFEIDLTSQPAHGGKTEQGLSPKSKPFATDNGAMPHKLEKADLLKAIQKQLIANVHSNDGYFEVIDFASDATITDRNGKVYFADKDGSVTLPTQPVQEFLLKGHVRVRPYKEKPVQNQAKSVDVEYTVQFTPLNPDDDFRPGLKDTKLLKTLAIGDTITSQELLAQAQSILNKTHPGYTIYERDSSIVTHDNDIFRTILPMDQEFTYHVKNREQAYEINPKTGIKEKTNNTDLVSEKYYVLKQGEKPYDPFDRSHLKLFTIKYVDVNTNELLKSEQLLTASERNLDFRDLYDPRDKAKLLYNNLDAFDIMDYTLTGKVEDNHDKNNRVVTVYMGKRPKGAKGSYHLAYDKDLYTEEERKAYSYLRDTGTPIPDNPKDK

[3] = system: Streptococcus; assay: GAS UMAA2166 growth inhibition – luminescence, BacTiterGlo, counter-screen for streptokinase expression inhibitor project, dose response (AID 1915); format: functional, organism-based;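 further: potency for reduction of bacterial viability or growth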
[4] = NIH3T3 cell viability loss – ATP luminescence, mouse fibroblasts, counter-screen, dose response (AID 2010); format: functional, cell-based;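 further: cells exposed to compound for about 90 hours before reading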
[5] = Trypanosoma cruzi growth suppression in host cells – NIH3T3 host cells, beta-gal luminescence, confirmation (AID 2044); format: functional, cell-based;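 further: intracellular parasites grown in NIH/3T3 mouse fibroblasts as host cells; luminescent beta-galactosidase reporter signal from transgenic T. cruzi replicating inside host cells; inhibitors lower the luminescence signal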
[6] = molecular target: T2, Heat shock factor protein 1 (Mus musculus, UniProt P38532); assay: decrease of HSF1-responsive luciferase luminescence – cell-based, NIH3T3, dose retest, confirmation (AID 2382); format: functional;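 further: NIH3T3 fibroblasts with HSF1-driven luciferase reporter stressed by proteasome inhibitor MG132; luminescence from HSF1-driven luciferase expression after 8 hours of MG132 stress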
T2 sequence (P38532 whole entry): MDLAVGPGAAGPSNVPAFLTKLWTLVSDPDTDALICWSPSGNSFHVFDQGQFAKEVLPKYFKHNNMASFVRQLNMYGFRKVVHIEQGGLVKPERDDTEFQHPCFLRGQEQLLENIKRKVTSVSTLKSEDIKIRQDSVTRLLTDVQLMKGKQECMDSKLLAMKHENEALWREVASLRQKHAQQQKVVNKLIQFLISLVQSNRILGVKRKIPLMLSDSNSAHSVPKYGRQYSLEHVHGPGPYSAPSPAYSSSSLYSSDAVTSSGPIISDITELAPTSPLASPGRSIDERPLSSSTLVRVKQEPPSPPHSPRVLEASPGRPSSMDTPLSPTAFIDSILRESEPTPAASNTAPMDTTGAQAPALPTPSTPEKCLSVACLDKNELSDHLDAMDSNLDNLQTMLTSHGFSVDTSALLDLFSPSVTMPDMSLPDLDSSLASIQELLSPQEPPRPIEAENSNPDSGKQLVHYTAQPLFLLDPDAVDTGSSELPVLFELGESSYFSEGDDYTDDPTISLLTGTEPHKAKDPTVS

[7] = molecular target: T3, Rac GTPase-activating protein 1 (Homo sapiens, UniProt Q9H0H5); assay: blockers of MgcRacGAP-driven Rac1 GTP hydrolysis – biochemical, ADP Hunter fluorescence, primary and confirmatory, confirmation (AID 624330); format: functional
T3 sequence (Q9H0H5 whole entry): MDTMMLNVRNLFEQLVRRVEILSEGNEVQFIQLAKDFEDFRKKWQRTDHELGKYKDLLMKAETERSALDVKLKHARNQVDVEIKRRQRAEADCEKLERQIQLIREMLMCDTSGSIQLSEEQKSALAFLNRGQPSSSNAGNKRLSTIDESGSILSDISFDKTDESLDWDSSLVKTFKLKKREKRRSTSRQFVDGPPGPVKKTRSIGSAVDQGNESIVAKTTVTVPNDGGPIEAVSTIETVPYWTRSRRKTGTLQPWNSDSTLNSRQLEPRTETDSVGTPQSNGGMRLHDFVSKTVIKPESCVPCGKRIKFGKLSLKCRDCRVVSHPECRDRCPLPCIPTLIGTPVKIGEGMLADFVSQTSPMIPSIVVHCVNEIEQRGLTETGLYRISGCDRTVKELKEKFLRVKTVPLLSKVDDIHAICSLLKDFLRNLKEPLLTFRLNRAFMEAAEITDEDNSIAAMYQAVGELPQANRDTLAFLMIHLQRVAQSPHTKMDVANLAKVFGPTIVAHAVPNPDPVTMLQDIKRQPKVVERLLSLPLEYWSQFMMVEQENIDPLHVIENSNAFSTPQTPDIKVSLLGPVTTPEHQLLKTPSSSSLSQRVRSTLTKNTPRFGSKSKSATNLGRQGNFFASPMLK

Q: With `O=C(/C=C/c1ccccc1)NC(=S)NNC(=O)c1ccco1` as the molecule, how does the EC50 [1] read?
A: 3.86 µM (active)

Q: And the EC50 [2]?
A: > 150 µM (not active)

Q: And the EC50 [3]?
A: 11.2 µM (active)

Q: What does the source list for `CC(C)(C)c1ccc(OCC(=O)Nc2ccc(C(=O)Nc3ccccc3C(=O)O)cc2)cc1`?
A: EC50 [1]: 4.27 µM (active); EC50 [3]: 22.9 µM (active)

Q: What does the source list for `CCOc1ccc(C2Nc3ccc4ccccc4c3-c3c2c(=O)oc2ccccc32)cc1` (stereo unspecified)?
A: EC50 [4]: > 60 µM (not active); EC50 [5]: 1.26 µM (active)

Q: With `O=C(c1cccc([N+](=O)[O-])c1)N1CCc2ccccc21` as the molecule, how does the EC50 [6] read?
A: > 195 µM (not active)

Q: With `CCCOc1ccc(Cc2c(Cl)nc(SC)nc2N(C)C)cc1` as the molecule, how does the EC50 [1] read?
A: 20.8 µM (active)

Q: What about the EC50 [2] of the same molecule?
A: 24.5 µM (active)

Q: And the EC50 [3]?
A: > 150 µM (not active)

Q: With `Cc1cccc(C)c1NC(=O)N1C(C(=O)O)CSC1C(=O)O` (stereo unspecified) as the molecule, how does the EC50 [6] read?
A: > 195 µM (not active)

Q: For `COc1cccc(CCNCc2cccc(C(F)(F)F)c2)c1`, which EC50 [4] is on record?
A: > 30 µM (not active)

Q: And the EC50 [5]?
A: 0.97 µM (active)

Q: With `CCOC(=O)C1=C(N)OC2=C(C(=O)CC(C)(C)C2)C1c1ccccc1OCC#N` (stereo unspecified) as the molecule, how does the EC50 [6] read?
A: > 195 µM (not active)

Q: Which results are given for `CC12CCC(C(=O)N3CCN(C(c4ccccc4)c4ccccc4)CC3)(OC1=O)C2(C)C` (stereo unspecified)?
A: EC50 [4]: > 60 µM (inconclusive); EC50 [5]: 1.56 µM (active)

Q: With `Cc1onc(-c2c(Cl)cccc2Cl)c1C(=O)NC1C(=O)N2C1SC(C)(C)C2C(=O)O` (stereo unspecified) as the molecule, how does the EC50 [1] read?
A: < 0.06 µM (active)

Q: And the EC50 [3]?
A: < 0.06 µM (active)

Q: Which results are given for `CC1(C)S[C@@H]2[C@H](NC(=O)COc3ccccc3)C(=O)N2C1C(=O)OCC1CCCCC1` (stereo partly specified)?
A: EC50 [1]: 9.95 µM (active); EC50 [2]: > 150 µM (not active); EC50 [3]: 14 µM (active)

Q: For `NC(=O)COC(=O)c1cc(O)nc2ccccc12`, which EC50 [6] is on record?
A: > 195 µM (not active)

Q: Which IC50 [7] does the source give for `CCN(CC)c1ccc(NC(=O)c2ccc3c(c2)OCO3)cc1` here?
A: 52.9 µM (active)

Q: For `CCN(CC)CCCNC(=O)C1CCC(CNS(=O)(=O)c2ccc(Cl)cc2)CC1` (stereo unspecified), which EC50 [6] is on record?
A: > 195 µM (not active)

Q: For `CSc1ccccc1NC(=O)CNCCCN1CCOCC1`, which IC50 [7] is on record?
A: 81.9 µM (active)

Q: Which EC50 [4] does the source give for `COc1cc(NC(=O)c2ccco2)c(OC)cc1NC(=O)Nc1cccc(Cl)c1` here?
A: > 60 µM (not active)

Q: What about the EC50 [5] of the same molecule?
A: 1.79 µM (active)

Q: For `CC(=O)N(C)C1=C(O)C(=O)c2ccccc2C1=O`, which EC50 [6] is on record?
A: > 195 µM (not active)

Q: With `c1cc2c(cc1CN1CCN(C3CCCCCC3)CC1)OCO2` as the molecule, how does the IC50 [7] read?
A: 91.9 µM (active)

Q: Which EC50 [6] does the source give for `CC(=O)Nc1cc(C(=O)N(C)Cc2ccco2)ccc1Sc1ccc(C)cc1` here?
A: > 195 µM (not active)

Q: Which results are given for `Cc1nn(Cc2ccccc2Cl)c2sc(C(=O)Nc3ccccc3N3CCOCC3)cc12`?
A: EC50 [1]: 45.4 µM (active); EC50 [2]: > 150 µM (not active); EC50 [3]: > 150 µM (not active)

Q: With `CSCc1nnc2n1-c1ccc(Cl)cc1C(c1ccccc1)=NC2` as the molecule, how does the EC50 [6] read?
A: > 195 µM (not active)

Q: Which EC50 [6] does the source give for `CCn1c(COc2ccc(C)cc2)nnc1SCC(=O)Nc1ccc2c(c1)OCCO2` here?
A: > 195 µM (not active)

Q: For `CCCn1c(NC(=O)c2ccccc2Br)nc2ccccc21`, which EC50 [1] is on record?
A: 10.2 µM (active)

Q: And the EC50 [2]?
A: > 150 µM (not active)

Q: And the EC50 [3]?
A: 30.5 µM (active)

Q: What does the source list for `COc1ccc(C2CC(c3cccs3)=NN2C(=O)c2ccc(Br)o2)cc1` (stereo unspecified)?
A: EC50 [1]: 6.42 µM (active); EC50 [2]: > 150 µM (not active); EC50 [3]: 27.4 µM (active)

Q: For `COc1ccc(N2CCN(C(=O)CCCN3C(=O)c4cccc5cccc(c45)C3=O)CC2)cc1`, which EC50 [4] is on record?
A: > 60 µM (inconclusive)

Q: And the EC50 [5]?
A: 2.45 µM (active)

Q: For `O=[N+]([O-])c1ccc(OCCN2CCNCC2)cc1`, which EC50 [4] is on record?
A: > 60 µM (not active)

Q: And the EC50 [5]?
A: 0.132 µM (active)
